The values below come from PMC12137981 (Acta Pharmaceutica Sinica. B, 2025).

Structures are written as SMILES. pKd: −log10 of the molar value.

As usually defined, the pKd is the Kd on a negative log10 scale, so that one unit is a factor of ten. Read a high pKd as a low Kd.

The assay has as its target SUMOylation activating enzyme subunit 1 (SAE1) (Homo sapiens, UniProt Q9UBE0). Put plainly: MST with RED-NHS-labeled purified SAE1. The format is binding.

Sequence of SUMOylation activating enzyme subunit 1 (SAE1) (Q9UBE0 whole entry): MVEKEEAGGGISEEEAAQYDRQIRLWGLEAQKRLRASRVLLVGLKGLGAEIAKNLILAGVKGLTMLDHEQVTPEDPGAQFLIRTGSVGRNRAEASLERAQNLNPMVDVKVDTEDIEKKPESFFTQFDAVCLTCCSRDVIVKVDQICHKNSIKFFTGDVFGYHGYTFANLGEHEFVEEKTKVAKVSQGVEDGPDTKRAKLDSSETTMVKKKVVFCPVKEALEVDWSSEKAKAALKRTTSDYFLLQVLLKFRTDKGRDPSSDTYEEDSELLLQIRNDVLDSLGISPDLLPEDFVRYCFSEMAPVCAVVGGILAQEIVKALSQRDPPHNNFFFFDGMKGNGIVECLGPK

Compound `COc1cc2c(c(OC)c1OC)-c1ccc(OC)c(=O)cc1[C@@H](NC(C)=O)CC2` [COL, colchicine] had a pKd of 5.59.
